From patent US20240270679A1, “LIPIDS FOR USE IN LIPID NANOPARTICLE FORMULATIONS” (Acuitas Therapeutics, Inc., priority 2022, published 2024)
Marks after values point to notes of the source that are not given here.

Legend:
[1] = Determination of pKa of formulated lipids (TNS fluorescence assay in lipid nanoparticles); assay type: physicochemical; settings: lipid nanoparticles (compound/DSPC/cholesterol/PEG-lipid), lipid formulated in LNP (cationic lipid/DSPC/cholesterol/PEG-lipid), pH of half-maximal fluorescence
Experimental: As described elsewhere, the pKa of formulated lipids is correlated with the effectiveness of LNPs for delivery of nucleic acids (see Jayaraman et al, Angewandte Chemie, International Edition (2012), 51(34), 8529-8533; Semple et al, Nature Biotechnology 28, 172-176 (2010)). In some embodiments, the preferred range of pKa is ˜5 to ˜7. The pKa of each lipid is determined in lipid nanoparticles using an assay based on fluorescence of 2-(p-toluidino)-6-napthalene sulfonic acid (TNS). Lipid nanoparticles comprising compound of structure (I)/DSPC/cholesterol/PEG-lipid (50/10/38.5/1.5 or 47.5:10:40.7:1.8 mol %) in PBS at a concentration of 0.4 mM total lipid are prepared using the in-line process as described in Example 1. TNS is prepared as a 100 μM stock solution in distilled water. Vesicles are diluted to 24 μM lipid in 2 mL of buffered solutions containing 10 mM HEPES, 10 mM MES, 10 mM ammonium acetate, and 130 mM NaCl, where the pH ranged from 2.5 to 11. An aliquot of the TNS solution is added to give a final concentration of 1 μM and following vortex mixing fluorescence intensity is measured at room temperature in a SLM Aminco Series 2 Luminescence Spectrophotometer using excitation and emission wavelengths of 321 nm and 445 nm. A sigmoidal best fit analysis is applied to the fluorescence data and the pKa is measured as the pH giving rise to half-maximal fluorescence intensity.

[2] = test system: luciferase expression in the liver; experiment: Luciferase mRNA in vivo evaluation using lipid nanoparticle compositions (liver luciferase expression); set-up: species or system mice; settings: tail vein injection, ng luciferase/g liver 4 hours after administration; for Liver Luc @ 0.3 mg/kg: 0.3 mg mRNA/kg; for Liver Luc @ 1.0 mg/kg: 1.0 mg mRNA/kg
Experimental: (§1) A lipid of structure (I), DSPC, cholesterol and PEG-lipid are solubilized in ethanol at a molar ratio of 50:10:38.5:1.5 or 47.5:10:40.7:1.8. Lipid nanoparticles (LNP) are prepared at a total lipid to mRNA weight ratio of approximately 10:1 to 40:1. Briefly, the mRNA is diluted to 0.2 mg/mL in 10 to 50 mM citrate buffer, pH 4 or 10 to 25 mM acetate buffer, pH 4. Syringe pumps are used to mix the ethanolic lipid solution with the mRNA aqueous solution at a ratio of about 1:5 to 1:3 (vol/vol) with total flow rates above 15 mL/min. The ethanol is then removed, and the external buffer replaced with PBS by dialysis. Finally, the lipid nanoparticles are filtered through a 0.2 µm pore sterile filter.
Studies are performed in 6-8-week-old female C57BL/6 mice (Charles River) or 8-10-week-old CD-1 (Harlan) mice (Charles River) according to guidelines established by an institutional animal care committee (ACC) and the Canadian Council on Animal Care (CCAC). Varying doses of mRNA-lipid nanoparticle are systemically administered by tail vein injection and animals euthanized at a specific time point (e.g., 4 hours) post-administration. Liver and spleen are collected in pre-weighed tubes, weights determined, immediately snap frozen in liquid nitrogen, and stored at −80° C. until processing for analysis.
For liver, approximately 50 mg is dissected for analyses in a 2 mL FastPrep tubes (MP Biomedicals, Solon OH). ¼″ ceramic sphere (MP Biomedicals) is added to each tube and 500 μL of Glo Lysis Buffer—GLB (Promega, Madison WI) equilibrated to room temperature is added to liver tissue. Liver tissues are homogenized with the FastPrep24 instrument (MP Biomedicals) at 2×6.0 m/s for 15 seconds. Homogenate is incubated at room temperature for 5 minutes prior to a 1:4 dilution in GLB and assessed using SteadyGlo Luciferase assay system (Promega). Specifically, 50 μL of diluted tissue homogenate is reacted with 50 μL of SteadyGlo substrate, shaken for 10 seconds followed by 5-minute incubation and then quantitated using a CentroXS^3 LB 960 luminometer (Berthold Technologies, Germany). The amount of protein assayed is determined by using the BCA protein assay kit (Pierce, Rockford, IL). Relative luminescence units (RLU) are then normalized to total μg protein assayed. To convert RLU to ng luciferase a standard curve is generated with QuantiLum Recombinant Luciferase (Promega).
The FLuc mRNA (L-6107) from Trilink Biotechnologies will express a luciferase protein, originally isolated from the firefly, photinus pyralis. FLuc is commonly used in mammalian cell culture to measure both gene expression and cell viability. It emits bioluminescence in the presence of the substrate, luciferin. This capped and polyadenylated mRNA is fully substituted with 5-methylcytidine and pseudouridine.
(§2) Representative compounds of the disclosure shown in Table 2 were formulated using the following molar ratio: 50% cationic lipid/10% distearoylphosphatidylcholine (DSPC)/38.5% Cholesterol/1.5% PEG lipid 2-[2-(ω-methoxy(polyethyleneglycol2000)ethoxy]-N,N-ditetradecylacetamide) or 47.5% cationic lipid/10% DSPC/40.7% Cholesterol/1.8% PEG lipid. Activity was determined by measuring luciferase expression in the liver 4 hours following administration via tail vein injection as described in Example 1 or by measuring the amount of human IgG in mouse serum as described in Example 2. The activity was compared at a dose of 1.0 or 0.5 or 0.3 mg mRNA/kg and expressed as ng luciferase/g liver measured 4 hours after administration, as described in Example 1 or as μg IgG/mL serum measured 24 hours after administration, as described in Example 2. Compound numbers in Table 2 refer to the compound numbers of Table 1.

human IgG in mouse serum = experiment: Immunoglobulin G (IgG) mRNA in vivo evaluation using lipid nanoparticle compositions (human IgG ELISA); set-up: species or system mice; settings: tail vein injection, μg IgG/mL serum 24 hours after administration; for Serum IgG @ 0.3 mg/kg: 0.3 mg mRNA/kg; for Serum IgG @ 1.0 mg/kg: 1.0 mg mRNA/kg
Experimental: as §1
Studies are performed in 6-8-week-old CD-1/ICR mice (Envigo) according to guidelines established by an institutional animal care committee (ACC) and the Canadian Council on Animal Care (CCAC). Varying doses of mRNA-lipid nanoparticle are systemically administered by tail vein injection and animals euthanized at a specific time point (e.g., 24 hours) post-administration. The whole blood is collected, and the serum subsequentially separated by centrifuging the tubes of the whole blood at 2000×g for 10 minutes at 4° C. and stored at −80° C. until use for analysis.
For immunoglobulin G (IgG) ELISA (Life Diagnostics Human IgG ELISA kit), the serum samples are diluted at 100 to 15000 folds with 1× diluent solution. 100 μL of diluted serum is dispensed into anti-human IgG coated 96-well plate in duplicate alongside human IgG standards and incubated in a plate shaker at 150 rpm at 25° C. for 45 minutes. The wells are washed 5 times with 1× wash solution using a plate washer (400 μL/well). 100 μL of HRP conjugate is added into each well and incubated in a plate shaker at the same condition above. The wells are washed 5 times again with 1× wash solution using a plate washer (400 μL/well). 100 μL of TMB reagent is added into each well and incubated in a plate shaker at the same condition above. The reaction is stopped by adding 100 μL of Stop solution to each well. The absorbance is read at 450 nm (A450) with a microplate reader. The amount of human IgG in mouse serum is determined by plotting A450 values for the assay standard against human IgG concentration.
as §2

| SMILES | pKa [1] | Liver Luc @ 0.3 mg/kg [2] [ng/g] | Liver Luc @ 1.0 mg/kg [2] [ng/g] | Liver Luc, determined at 0.5 mg/kg ([2]; 0.5 mg mRNA/kg (footnote *)) | Serum IgG @ 0.3 mg/kg (human IgG in mouse serum) [µg/mL] | Serum IgG @ 1.0 mg/kg (human IgG in mouse serum) [µg/mL] |
| --- | --- | --- | --- | --- | --- | --- |
| CCCCCCCCC(CCCCCC)COC(=O)CCCCCN(CCCCCC(=O)OCC(CCCCCC)CCCCCCCC)CCN(C)CCCCNC(=O)CCCCCCC (centres unmarked) [Compound I-1, bis(2-hexyldecyl) 6,6′-((2-(methyl(4-octanamidobutyl)amino)ethyl)azanediyl)dihexanoate] | 6.64 | 5497 ± 1457 | 13160 ± 5805 |  |  |  |
| CCCCCCCCCCCCCC(=O)NCCCCN(C)CCN(CCCCCC(=O)OCC(CCCCCC)CCCCCCCC)CCCCCC(=O)OCC(CCCCCC)CCCCCCCC (centres unmarked) [Compound I-3, bis(2-hexyldecyl) 6,6′-((2-(methyl(4-tetradecanamidobutyl)amino)ethyl)azanediyl)dihexanoate] | 6.7 |  |  | 31 ± 6* ng/g |  |  |
| CCCCCCCCC(=O)NCCCN(C)CCN(CCCCCCCC(=O)OCC(CCCCCC)CCCCCCCC)CCCCCCCC(=O)OCC(CCCCCC)CCCCCCCC (centres unmarked) [Compound I-4, bis(2-hexyldecyl) 8,8′-((2-(methyl(3-nonanamidopropyl)amino)ethyl)azanediyl)dioctanoate] | 6.7 | 7747 ± 1565 | 24964 ± 8175 |  |  |  |
| CCCCCCCCC(CCCCCC)COC(=O)CCCCCCCN(CCCCCCCC(=O)OCC(CCCCCC)CCCCCCCC)CCN(C)CCCCNC(=O)CCCCCCC (centres unmarked) [Compound I-5, bis(2-hexyldecyl) 8,8′-((2-(methyl(4-octanamidobutyl)amino)ethyl)azanediyl)dioctanoate] | 6.68 | 6538 ± 11243 | 43609 ± 9207 |  |  |  |
| CCCCCCCC(=O)NCCCCN(C)CCN(CCCCCCCCCOC(=O)C(CCCC)CCCCCC)CCCCCCCCCOC(=O)C(CCCC)CCCCCC (centres unmarked) [Compound I-6, ((2-(methyl(4-octanamidobutyl)amino)ethyl)azanediyl)bis(nonane-9,1-diyl)bis(2-butyloctanoate)] | 6.56 | 12241 ± 3108 | 67044 ± 44033 |  |  |  |
| CCCCCCCCCCNC(=O)CCCCCN(C)CCN(CCCCCC(=O)OCC(CCCCCC)CCCCCCCC)CCCCCC(=O)OCC(CCCCCC)CCCCCCCC (centres unmarked) [Compound I-7, bis(2-hexyldecyl) 6,6′-((2-((6-(decylamino)-6-oxohexyl)(methyl)amino)ethyl)azanediyl)dihexanoate] | 6.57 | 10812 ± 2335 | 44836 ± 12026 |  |  |  |
| CCCCCCCCC(CCCCCC)C(=O)OCCCCCCN(CCCCCCOC(=O)C(CCCCCC)CCCCCCCC)CCN(C)CCCC(=O)N(CCCC)CCCC (centres unmarked) [Compound I-8, ((2-((4-(dibutylamino)-4-oxobutyl)(methyl)amino)ethyl)azanediyl)bis(hexane-6,1-diyl)bis(2-hexyldecanoate)] | 6.13 | 16110 ± 2654 | 56927 ± 16125 |  |  |  |
| CCCCCCCCC(CCCCCC)COC(=O)CCCCCN(CCCCCC(=O)OCC(CCCCCC)CCCCCCCC)CCN(C)CCCCCC(=O)N(C)CCCCCCCC (centres unmarked) [Compound I-10, bis(2-hexyldecyl) 6,6′-((2-(methyl(6-(methyl(octyl)amino)-6-oxohexyl)amino)ethyl)azanediyl)dihexanoate] | 6.33 | 9794 ± 1750 | 43271 ± 18103 |  |  |  |
| CCCCCCCCC(CCCCCC)COC(=O)CCCCCN(CCCCCC(=O)OCC(CCCCCC)CCCCCCCC)CCN(C)CCCCCC(=O)NCC(CC)CCCC (centres unmarked) [Compound I-11, bis(2-hexyldecyl) 6,6′-((2-((6-((2-ethylhexyl)amino)-6-oxohexyl)(methyl)amino)ethyl)azanediyl)dihexanoate] | 6.27 | 16601 ± 5871 | 66075 ± 18868 |  |  |  |
| CCCCCCCCC(CCCCCC)C(=O)OCCCCCCN(CCCCCCOC(=O)C(CCCCCC)CCCCCCCC)CCCCN(C)CCCCC(=O)N(CCCCCC)CCCCCC (centres unmarked) [Compound I-47, ((4-((5-(dihexylamino)-5-oxopentyl)(methyl)amino)butyl)azanediyl)bis(hexane-6,1-diyl)bis(2-hexyldecanoate)] | 6.45 |  |  |  | 15.3 ± 3.7 | 61.8 ± 11.5 |
| CCCCCCCCCCN(CCCCCCCCCC)C(=O)CCCCN(C)CCCCN(CCCCCCOC(=O)C(CCCCCC)CCCCCCCC)CCCCCCOC(=O)C(CCCCCC)CCCCCCCC (centres unmarked) [Compound I-48, ((4-((5-(didecylamino)-5-oxopentyl)(methyl)amino)butyl)azanediyl)bis(hexane-6,1-diyl)bis(2-hexyldecanoate)] | 6.37 |  |  |  | 4.4 ± 1.1 | 21.8 ± 5.0 |
